Experiments:
[1] = test system: JAK2, TYK2/p-STAT4 (Tyr693) activated by IL-12 in NK-92 cell line; test: IL-12-JAK2, TYK2/p-STAT4 (Tyr693) inhibition IC50 cellular assay; assay type: cell-based; conditions: for Selectivity fold (TYK2/JAK2): Cellular assay, pSTAT5/GM-CSF IC50 vs pSTAT4/IL-12 IC50; for IC50: NK92, Cellular assay, read-out: pSTAT4/IL-12 IC50
Outline: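 NK-92 cells were starved overnight without IL-2 and preincubated 1 h at 37° C with compound (8 doses, 10000–0.61 nM, 4-fold, 0.2% DMSO). They were then stimulated with IL-12 (40 ng/ml final) for 30 min. Lysate p-STAT4 (Tyr693) was read by AlphaLISA SureFire; IC50 from four-parameter logistic fit.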

[2] = target: T1, TYK2-JH2 (aa 575-869, in-house) protein (Homo sapiens, UniProt P29597); test: TYK2-JH2 biochemical assay (HTRF probe displacement); assay type: binding; conditions: Biochemical assay; read-out: TYK2-JH2 IC50
T1 construct: TYK2-JH2 (aa 575-869, in-house) protein; made in house
T1 sequence (P29597 575-869): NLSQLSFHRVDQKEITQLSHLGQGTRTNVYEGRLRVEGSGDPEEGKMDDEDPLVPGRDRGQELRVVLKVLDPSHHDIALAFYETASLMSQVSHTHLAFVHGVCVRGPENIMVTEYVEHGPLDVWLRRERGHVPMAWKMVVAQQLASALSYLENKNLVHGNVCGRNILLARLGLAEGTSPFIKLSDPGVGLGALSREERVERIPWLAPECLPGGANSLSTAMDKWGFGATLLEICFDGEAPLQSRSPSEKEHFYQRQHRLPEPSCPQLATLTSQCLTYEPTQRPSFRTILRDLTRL
Outline: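 Recombinant TYK2-JH2 (0.2 nM) was pre-incubated 0.5 h at room temperature with compounds (10 doses, 5-fold dilution; 500× DMSO stocks from 500 uM) in 20 mM HEPES pH 7.5, 10 mM MgCl2, 0.005% BSA, 2 mM DTT, 0.015% Brij-35. Probe displacement was read by HTRF (ex337, em620/665 nm); IC50 from four-parameter logistic fit.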

pSTAT5/GM-CSF = pSTAT5/GM-CSF cellular assay (JAK2 selectivity); assay type: cell-based; conditions: for Selectivity fold (TYK2/JAK2): pSTAT5/GM-CSF IC50 over pSTAT4/IL-12 IC50

IC50 [1] [nM] | IC50 [2] [nM] | IC50 (pSTAT5/GM-CSF) [µM] | SMILES | Selectivity fold (TYK2/JAK2) [1] [fold] | Selectivity fold (TYK2/JAK2) (pSTAT5/GM-CSF) [fold]
0.307 | 0.04 | 1 | CC(=O)Nc1cc(Nc2cccc(S(C)(=O)=O)n2)c(-c2ccc(OC3CCOC3)cn2)cn1 (stereo not shown) [Example B23, N-(4′-((6-(methylsulfonyl)pyridin-2-yl)amino)-5-((tetrahydrofuran-3-yl)oxy)-[2,3′-bipyridin]-6′-yl)acetamide] | 3260 | –
3.02 | 0.025 | > 10 | COCCOc1cc(Nc2cc(NC(C)=O)ncc2-c2cc3c(cn2)OCCO3)nc(S(C)(=O)=O)c1 [Example Q19, N-(5-(2,3-dihydro-[1,4]dioxino[2,3-c]pyridin-7-yl)-4-((4-(2-methoxyethoxy)-6-(methylsulfonyl)pyridin-2-yl)amino)pyridin-2-yl)acetamide] | – | >3311
12.6 | 0.033 | > 10 | CC(=O)Nc1cc(Nc2cc(OCCO)cc(S(C)(=O)=O)c2)c(-c2cc(C)n(C)n2)cn1 [Example N3, N-(5-(1,5-dimethyl-1H-pyrazol-3-yl)-4-((3-(2-hydroxyethoxy)-5-(methylsulfonyl)phenyl)amino)pyridin-2-yl)acetamide] | – | >791
6.86 | 0.031 | 8.29 | CC(=O)Nc1cc(Nc2cc(OCC(C)O)cc(S(C)(=O)=O)n2)c(-c2cc(N3CCOCC3)n(C)n2)cn1 (stereo not shown) [Example O3, N-(4-((4-(2-hydroxypropoxy)-6-(methylsulfonyl)pyridin-2-yl)amino)-5-(1-methyl-5-morpholino-1H-pyrazol-3-yl)pyridin-2-yl)acetamide] | – | 2109
2.91 | 0.025 | > 10 | CC(=O)Nc1cc(Nc2cc(OCC3COC3)cc(S(C)(=O)=O)n2)c(-c2ccn(C)n2)cn1 [Example J25, N-(5-(1-methyl-1H-pyrazol-3-yl)-4-((6-(methylsulfonyl)-4-(oxetan-3-ylmethoxy)pyridin-2-yl)amino)pyridin-2-yl)acetamide] | – | >3436
0.286 | 0.026 | > 10 | CC(=O)Nc1cc(Nc2cc(OCC3CC3)cc(S(C)(=O)=O)n2)c(-c2ccn(C)n2)cn1 [Example J3, N-(4-((4-(cyclopropylmethoxy)-6-(methylsulfonyl)pyridin-2-yl)amino)-5-(1-methyl-1H-pyrazol-3-yl)pyridin-2-yl)acetamide] | – | >34965
0.637 | 0.024 | 0.473 | CC(=O)Nc1cc(Nc2cc(C3CCCOC3)cc(S(C)(=O)=O)n2)c(-c2ccc3c(n2)OCC(C)(C)O3)cn1 (stereo not shown) [Example Q75, N-(5-(2,2-dimethyl-2,3-dihydro-[1,4]dioxino[2,3-b]pyridin-6-yl)-4-((6-(methylsulfonyl)-4-(tetrahydro-2H-pyran-3-yl)pyridin-2-yl)amino)pyridin-2-yl)acetamide] | – | 742
2.1 | 0.034 | > 10 | COc1ccc(-c2cnc(NC(C)=O)cc2Nc2cc(N3C[C@@H](C)O[C@@H](C)C3)cc(S(C)(=O)=O)n2)nn1 [Example A27, N-(4-((4-((2S,6R)-2,6-dimethylmorpholino)-6-(methylsulfonyl)pyridin-2-yl)amino)-5-(6-methoxypyridazin-3-yl)pyridin-2-yl)acetamide] | >4761 | –
30.1 | 0.044 | > 10 | CC(=O)Nc1cc(Nc2cc(OCCO)cc(S(C)(=O)=O)c2)c(-c2ccn(C)n2)cn1 [Example J56, N-(4-((3-(2-hydroxyethoxy)-5-(methylsulfonyl)phenyl)amino)-5-(1-methyl-1H-pyrazol-3-yl)pyridin-2-yl)acetamide] | – | >332
3.54 | 0.026 | > 10 | CC(=O)Nc1cc(Nc2cc(OC[C@H](C)O)cc(S(C)(=O)=O)n2)c(-c2ccc(C(F)(F)F)cn2)cn1 [Example F21, (S)-N-(4′-((4-(2-hydroxypropoxy)-6-(methylsulfonyl)pyridin-2-yl)amino)-5-(trifluoromethyl)-[2,3′-bipyridin]-6′-yl)acetamide] | >2814 | –
0.639 | 0.023 | 4.87 | COC(C)c1cc(Nc2cc(NC(C)=O)ncc2-c2ccc(N3C[C@@H](C)O[C@@H](C)C3)cn2)nc(S(C)(=O)=O)c1 (stereo partly drawn) [Example C18, N-(5-(cis-2,6-dimethylmorpholino)-4′-((4-(1-methoxyethyl)-6-(methylsulfonyl)pyridin-2-yl)amino)-[2,3′-bipyridin]-6′-yl)acetamide] | 7625 | –
35.2 | 0.046 | > 10 | CC(=O)Nc1cc(Nc2cc(C#N)cc(S(C)(=O)=O)c2)c(-c2ccc(C(C)(C)O)cn2)cn1 [Example H20, N-(4′-((3-cyano-5-(methylsulfonyl)phenyl)amino)-5-(2-hydroxypropan-2-yl)-[2,3′-bipyridin]-6′-yl)acetamide] | >284 | –
1.23 | 0.046 | > 10 | CC(=O)Nc1cc(Nc2cc(C)cc(S(C)(=O)=O)n2)c(-c2ccc(C(F)(F)F)cn2)cn1 [Example F1, N-(4′-((4-methyl-6-(methylsulfonyl)pyridin-2-yl)amino)-5-(trifluoromethyl)-[2,3′-bipyridin]-6′-yl)acetamide] | >8130 | –
0.323 | 0.015 | 1.68 | CC(=O)Nc1cc(Nc2cccc(S(C)(=O)=O)n2)c(-c2ccc(C(C)(C)O)cn2)cn1 [Example H5, N-(5-(2-hydroxypropan-2-yl)-4′-((6-(methylsulfonyl)pyridin-2-yl)amino)-[2,3′-bipyridin]-6′-yl)acetamide] | 5185 | –
11.2 | 0.049 | > 10 | CC(=O)Nc1cc(Nc2cccc(S(C)(=O)=O)c2)c(-c2ccn(C3CCOC3)n2)cn1 (stereo not shown) [Example M30, N-(4-((3-(methylsulfonyl)phenyl)amino)-5-(1-(tetrahydrofuran-3-yl)-1H-pyrazol-3-yl)pyridin-2-yl)acetamide] | – | >892
1.52 | 0.033 | > 10 | COc1ccc(-c2cnc(NC(C)=O)cc2Nc2nc(S(C)(=O)=O)cc3c2OCO3)nn1 [Example A28, N-(5-(6-methoxypyridazin-3-yl)-4-((6-(methylsulfonyl)-[1,3]dioxolo[4,5-c]pyridin-4-yl)amino)pyridin-2-yl)acetamide] | >6578 | –
0.72 | 0.017 | > 10 | COc1cc(Nc2cc(NC(C)=O)ncc2-c2ccn(C)n2)nc(S(C)(=O)=O)c1 [Example J21, N-(4-((4-methoxy-6-(methylsulfonyl)pyridin-2-yl)amino)-5-(1-methyl-1H-pyrazol-3-yl)pyridin-2-yl)acetamide] | – | >13888
0.503 | 0.016 | 1.58 | CC(=O)Nc1cc(Nc2cc(C)cc(S(C)(=O)=O)n2)c(-c2ccc(C(C)(C)O)cn2)cn1 [Example H9, N-(5-(2-hydroxypropan-2-yl)-4′-((4-methyl-6-(methylsulfonyl)pyridin-2-yl)amino)-[2,3′-bipyridin]-6′-yl)acetamide] | 3147 | –
1.18 | 0.054 | > 10 | COC(C)COc1cc(Nc2cc(NC(C)=O)ncc2-c2ccn(C)n2)nc(S(C)(=O)=O)c1 (stereo not shown) [Example J13, N-(4-((4-(2-methoxypropoxy)-6-(methylsulfonyl)pyridin-2-yl)amino)-5-(1-methyl-1H-pyrazol-3-yl)pyridin-2-yl)acetamide] | – | >8474
0.828 | 0.031 | 1.42 | CC(=O)Nc1cc(Nc2cc(C)cc(S(C)(=O)=O)n2)c(-c2ccn(C3CCOC3)n2)cn1 (stereo not shown) [Example M31, N-(4-((4-methyl-6-(methylsulfonyl)pyridin-2-yl)amino)-5-(1-(tetrahydrofuran-3-yl)-1H-pyrazol-3-yl)pyridin-2-yl)acetamide] | – | 1714

SMILES | IC50 [1] [nM] | IC50 [2] [nM] | IC50 (pSTAT5/GM-CSF) [µM] | Selectivity fold (TYK2/JAK2) [1] [fold] | Selectivity fold (TYK2/JAK2) (pSTAT5/GM-CSF) [fold]
COC1CC(Oc2cc(Nc3cc(NC(C)=O)ncc3-c3ccc(C(C)(C)O)cn3)nc(S(C)(=O)=O)c2)C1 (stereo not shown) [Example H29, N-(5-(2-hydroxypropan-2-yl)-4′-((4-(3-methoxycyclobutoxy)-6-(methylsulfonyl)pyridin-2-yl)amino)-[2,3′-bipyridin]-6′-yl)acetamide] | 1.77 | 0.022 | 8.49 | 4797 | –
COC1CC(Oc2cc(Nc3cc(NC(C)=O)ncc3-c3ccn(C)n3)nc(S(C)(=O)=O)c2)C1 (stereo not shown) [Example J18, N-(4-((4-(3-methoxycyclobutoxy)-6-(methylsulfonyl)pyridin-2-yl)amino)-5-(1-methyl-1H-pyrazol-3-yl)pyridin-2-yl)acetamide] | 0.399 | 0.028 | > 10 | – | >25062
